Measured values published in patent publication US20200087269A1, “PROCESS FOR THE PRODUCTION OF OZANIMOD” (EGIS GYOGYSZERGYAR ZRT., priority 2017, published 2020).

Assays:
[1] = Dynamic vapour sorption (DVS) measurement; format: physicochemical; details: 25° C.
Experimental: Dynamic Vapour Sorption (DVS)
Device: TA Q5000SA dynamic vapour sorption analyser (DVS) Atmosphere: Flowing nitrogen Carrier gas flow rate: 200 mL/min N2
Balance house flow rate: 10 mL/min N2 Temperature maintained • 35° C. in balance house: Crucible type: Platinum 100 μl, open Measuring method: Custom
Measuring temperature: 25° C., isotherm Measurement range: Between 0% and 95% RH Initial relative humidity: 20% RH Measurement phases: Desorption-adsorption-desorption Step size: 5% RH Mass constant criterion: ≤0.01% for 5 minutes Maximum step length: 360 minutes Sampling frequency: 5 sec/point Number of cycles: 2
The dynamic vapour sorption (DVS) measurement of the ozanimod base Form I polymorph according to example 6

[2] = X-ray powder diffraction after two DVS cycles (polymorph stability to humidity); format: physicochemical
Experimental: FIG. 5: The x-ray powder diffractogram of the ozanimod base Form I form after two DVS cycles (see example 6).
The x-ray powder diffraction measurements were performed as follows:
Device: PANalytical Empyrean x-ray powder diffractometer Measurement alignment: Transmission
Type: Empyrean long fine focussing, high resolution tube
Divergence slit: Fixed slit 1/2° Mirror: Focussing elliptical mirror Soller slit: 0.04 rad Diffusion inhibitor slit: Fixed slit 1/2°
Diffusion inhibitor slit: Programmable slit in fixed mode: 1/2° Soller slit: 0.04 rad
Type: Reflection-transmission, with rotatable sample holders Sample rotation speed: 1 rotation/second Direct beam catcher (“beam knife”): Transmission
Type: PIXcel 3D 1×1 area detector Operation mode: Scanning line detector (ID) operation mode Active detector window size: 3.3473° Sample preparation: samples placed between two Mylar sheets, without pulverising
Temperature: room temperature Accelerating voltage: 45 kV Anode heating current: 40 mA Scanning method: continuous (θ/θ) scanning Measurement range: 2.0000-34.9964° 2θ
Step duration: 109.650 seconds No of measurement cycles: 1 Measurement duration: ˜20 minutes

hygroscopicity ([1]; DVS, 0-95% RH): slightly hygroscopic | sorption isotherm on repeating the cycle ([1]; second DVS cycle): did not change | mass increase of the sample ([1]; under 95% relative humidity, first cycle): 0.6% | polymorphic nature under air humidity ([2]; according to applicant's tests): does not change | crystal structure after the two DVS cycles (x-ray powder diffractogram, FIG. 5 vs FIG. 3) ([2]; after two DVS cycles, 25° C., 0-95% RH): unchanged
SMILES: CC(C)Oc1ccc(-c2nc(-c3cccc4c3CC[C@@H]4NCCO)no2)cc1C#N [ozanimod base Form I polymorph, ozanimod]
stability of the polymorph form / sensitivity to humidity ([2]; 25° C.): stable at 25° C., and not sensitive to humidity | influence of the humidity of the air on the stability of the crystals ([2]; according to applicant's tests): does not influence the stability of the crystals
